Test results: PubChem BioAssay AID1963868 (Molecular Pharmacology Branch, DTP, NCI, 2024)

Test system: KRAS PDC tumor spheroids (HUVEC+MSC), viability
Assay: Anticancer human tumor 254851-301-R-J1-PDC patient-derived colon carcinoma cell line growth inhibition [KRAS2]
Details: for IC50: curve of first compound; for viability, T/C: stronger effect = lower value
Method in brief: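 Combination screen of spheroid viability in tumor-cell co-cultures with endothelial (HUVEC) and mesenchymal stem cell stroma. Each agent was tested in half-log dilutions, topping at clinical Cmax or at 10 microM without a known Cmax.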

[1] = second compound 0.1 µM, first compound 0.000316 µM
[2] = second compound 0.1 µM, first compound 0.001 µM
[3] = second compound 0.1 µM, first compound 0.00316 µM
[4] = second compound 0.1 µM, first compound 0.01 µM
[5] = second compound 0.1 µM, first compound 0.0316 µM
[6] = second compound 0.316 µM, first compound 0.000316 µM
[7] = second compound 0.316 µM, first compound 0.001 µM
[8] = second compound 0.316 µM, first compound 0.00316 µM
[9] = second compound 0.316 µM, first compound 0.01 µM
[10] = second compound 0.316 µM, first compound 0.0316 µM
[11] = second compound 1 µM, first compound 0.000316 µM
[12] = second compound 1 µM, first compound 0.001 µM
[13] = second compound 1 µM, first compound 0.00316 µM
[14] = second compound 1 µM, first compound 0.01 µM
[15] = second compound 1 µM, first compound 0.0316 µM
[16] = second compound 3.16 µM, first compound 0.000316 µM
[17] = second compound 3.16 µM, first compound 0.001 µM
[18] = second compound 3.16 µM, first compound 0.00316 µM
[19] = second compound 3.16 µM, first compound 0.01 µM
[20] = second compound 3.16 µM, first compound 0.0316 µM
[21] = second compound 10 µM, first compound 0.000316 µM
[22] = second compound 10 µM, first compound 0.001 µM
[23] = second compound 10 µM, first compound 0.00316 µM
[24] = second compound 10 µM, first compound 0.01 µM
[25] = second compound 10 µM, first compound 0.0316 µM
[26] = second compound 0.1 µM, first compound 0.1 µM
[27] = second compound 0.316 µM, first compound 0.1 µM
[28] = second compound 1 µM, first compound 0.1 µM
[29] = second compound 3.16 µM, first compound 0.1 µM
[30] = second compound 10 µM, first compound 0.1 µM
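Note: spheroids exposed to compounds for seven days before readout.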
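Throughout, for viability, T/C: 100% = DMSO vehicle control luminescence of the spheroids.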

`CC(=O)Nc1cccc(-n2c(=O)n(C3CC3)c(=O)c3c(Nc4ccc(I)cc4F)n(C)c(=O)c(C)c32)c1` + CNCc1ccccc1-c1csc(C(C)Nc2nc(C)nc3cc(OC)c(OC)cc23)c1 showed an IC50 (second compound 0.1 µM) of 4.7 nM, an IC50 (second compound 0.316 µM) of 5.18 nM and an IC50 (second compound 1 µM) of 2.4 nM. For the same compound, the IC50 (second compound 3.16 µM) was 0.639 nM, the IC50 (second compound 10 µM) was < 0.1 nM and the viability, T/C (second compound 0.1 µM, first compound 0.0001 µM) was 101%. The viability, T/C [1] was 101%, the viability, T/C [2] was 87.7% and the viability, T/C [3] was 71%. The viability, T/C [4] was 11.4%, the viability, T/C [5] was 2.93% and the viability, T/C (second compound 0.316 µM, first compound 0.0001 µM) was 82.5%. The viability, T/C [6] was 99.8%, the viability, T/C [7] was 87.1% and the viability, T/C [8] was 78.2%. The viability, T/C [9] was 12.6%, the viability, T/C [10] was 2.77% and the viability, T/C (second compound 1 µM, first compound 0.0001 µM) was 94.4%. For the same compound, the viability, T/C [11] was 94.9%, the viability, T/C [12] was 88.2% and the viability, T/C [13] was 37.9%. It also gave a viability, T/C [14] of 5.82%, a viability, T/C [15] of 2.26% and a viability, T/C (second compound 3.16 µM, first compound 0.0001 µM) of 72.5%. It also gave a viability, T/C [16] of 74.9%, a viability, T/C [17] of 34.9% and a viability, T/C [18] of 0.57%. The viability, T/C [19] was 0.32%, the viability, T/C [20] was 0.28% and the viability, T/C (second compound 10 µM, first compound 0.0001 µM) was 0.16%. The viability, T/C [21] was 0.15%, the viability, T/C [22] was 0.13% and the viability, T/C [23] was 0.1%. For the same compound, the viability, T/C [24] was 0.09% and the viability, T/C [25] was 0.15%.
Work on `CC(C)n1nc(-c2ccc3oc(N)nc3c2)c2c(N)ncnc21` + CNCc1ccccc1-c1csc(C(C)Nc2nc(C)nc3cc(OC)c(OC)cc23)c1 yielded an IC50 (second compound 0.1 µM) of 18.6 nM, an IC50 (second compound 0.316 µM) of 19.7 nM and an IC50 (second compound 1 µM) of 17.4 nM. The IC50 (second compound 3.16 µM) was 6.04 nM, the IC50 (second compound 10 µM) was < 0.316 nM and the viability, T/C [1] was 110%. It also gave a viability, T/C [2] of 98.6%, a viability, T/C [3] of 89.2% and a viability, T/C [4] of 64.8%. It also gave a viability, T/C [5] of 36.8%, a viability, T/C [26] of 23.3% and a viability, T/C [6] of 96.1%. The viability, T/C [7] was 105%, the viability, T/C [8] was 82% and the viability, T/C [9] was 73.4%. The viability, T/C [10] was 33.8%, the viability, T/C [27] was 23.4% and the viability, T/C [11] was 88.6%. The viability, T/C [12] was 95%, the viability, T/C [13] was 80.4% and the viability, T/C [14] was 68%. For the same compound, the viability, T/C [15] was 31.4%, the viability, T/C [28] was 19.5% and the viability, T/C [16] was 81.1%. The viability, T/C [17] was 76.7%, the viability, T/C [18] was 53.8% and the viability, T/C [19] was 45.9%. For the same compound, the viability, T/C [20] was 25%, the viability, T/C [29] was 9.11% and the viability, T/C [21] was 0.21%. It also gave a viability, T/C [22] of 0.19%, a viability, T/C [23] of 0.17% and a viability, T/C [24] of 0.14%. The viability, T/C [25] was 0.14% and the viability, T/C [30] was 0.19%.
For `CC1(C)CCC(CN2CCN(c3ccc(C(=O)NS(=O)(=O)c4ccc(NCC5CCOCC5)c([N+](=O)[O-])c4)c(Oc4cnc5[nH]ccc5c4)c3)CC2)=C(c2ccc(Cl)cc2)C1` + CNCc1ccccc1-c1csc(C(C)Nc2nc(C)nc3cc(OC)c(OC)cc23)c1, the IC50 (second compound 0.1 µM) was > 10000 nM, the IC50 (second compound 0.316 µM) was > 10000 nM and the IC50 (second compound 1 µM) was 3120 nM. The IC50 (second compound 3.16 µM) was 1110 nM, the IC50 (second compound 10 µM) was < 31.6 nM and the viability, T/C [5] was 100%. For the same compound, the viability, T/C [26] was 104%, the viability, T/C (second compound 0.1 µM, first compound 0.316 µM) was 100% and the viability, T/C (second compound 0.1 µM, first compound 1 µM) was 94.8%. For the same compound, the viability, T/C (second compound 0.1 µM, first compound 3.16 µM) was 94%, the viability, T/C (second compound 0.1 µM, first compound 10 µM) was 86% and the viability, T/C [10] was 91.9%. The viability, T/C [27] was 102%, the viability, T/C (second compound 0.316 µM, first compound 0.316 µM) was 99.7% and the viability, T/C (second compound 0.316 µM, first compound 1 µM) was 100%. It also gave a viability, T/C (second compound 0.316 µM, first compound 3.16 µM) of 87.7%, a viability, T/C (second compound 0.316 µM, first compound 10 µM) of 81.2% and a viability, T/C [15] of 93.3%. The viability, T/C [28] was 102%, the viability, T/C (second compound 1 µM, first compound 0.316 µM) was 92.9% and the viability, T/C (second compound 1 µM, first compound 1 µM) was 83.2%. For the same compound, the viability, T/C (second compound 1 µM, first compound 3.16 µM) was 49.6%, the viability, T/C (second compound 1 µM, first compound 10 µM) was 16.4% and the viability, T/C [20] was 80.4%. It also gave a viability, T/C [29] of 75.1%, a viability, T/C (second compound 3.16 µM, first compound 0.316 µM) of 71.6% and a viability, T/C (second compound 3.16 µM, first compound 1 µM) of 55%. It also gave a viability, T/C (second compound 3.16 µM, first compound 3.16 µM) of 1.17%, a viability, T/C (second compound 3.16 µM, first compound 10 µM) of 0.61% and a viability, T/C [25] of 0.17%. For the same compound, the viability, T/C [30] was 0.2%, the viability, T/C (second compound 10 µM, first compound 0.316 µM) was 0.17% and the viability, T/C (second compound 10 µM, first compound 1 µM) was 0.15%. It also gave a viability, T/C (second compound 10 µM, first compound 3.16 µM) of 0.12% and a viability, T/C (second compound 10 µM, first compound 10 µM) of 0.17%.
